From publication PMC8413904 (Pharmacology Research & Perspectives, 2021)

Key:
GluN1/2A = GluN1/2A (UniProt P35439+Q12879); test: Whole‐cell patch‐clamp electrophysiology in HEK293T cells; type: cell-based; design: expressed in transfected cells; host or cells: HEK-293 / HEK293T cells
Method: Whole‐cell patch‐clamp electrophysiology studies were carried out in the HEK‐293 cells, expressing recombinant NMDARs that lack native functional NMDARs.[40], [41], [42] Equal quantity of (1 µg) cDNA for GluN1a, GluN2 (A or B or C or D) subunits were co‐transfected 24–48 h before patch‐clamp electrophysiology assay. […] Cells were carefully washed before performing experiments and were used for the electrophysiology experiments after 24–48 h incubation at 37°C with 5%CO2. The whole‐cell patch‐clamp electrophysiology assay was performed using semi‐automated patch‐clamp equipment, Port‐a‐Patch (Nanion Technologies GmbH). Following are the constituents of various solutions used for patch‐clamp electrophysiology: internal solution [(mM) NaCl 10, EGTA 20, CsF 110, HEPES 10], Mg‐free external (recording) solution [(mM) NaCl 140, KCl 4, CaCl2 2, HEPES 10, D‐GlucoseMonohydrate 5], and Mg‐free seal enhancer solution [(mM) NaCl 80, KCl 3, CaCl2 35, HEPES 10]. Nanion NPC chips with […] resistance were used for the HEK‐293 cell recordings.

GluN1/2B [1] = target: T1, GluN1/2B (Rattus norvegicus, UniProt P35439+Q00960); test: TEVC electrophysiology dose–response in xenopus oocytes; type: cell-based; design: SEP (super-ecliptic pHluorin); host or cells: Xenopus oocytes (cRNA injection); conditions: 100 µM CNS4; 0.3 µM glutamate + 100 µM glycine; −60 mV; average ± SEM
From the text: NMDAR constructs: cDNA encoding the NMDAR1a subunit (GluN1a) was obtained from Dr. Nakanishi. cDNA encoding the GluN2B (pci_sepGluN2B) was developed initially in the Malinow lab[36] and purchased from Addgene (cat# 23998). cDNA encoding the GluN2C and GluN2D were purchased from GenScript. Mutated GluN1, 2A and 2B cDNA constructs capable of assembling as GluN1/2A/2B triheteromeric (1/2AB) receptors[37] were obtained from Dr. Paoletti (Laboratoire de Neurobiologie, CNRS). […] Plasmids were linearized with NotI (GluN1a) or Avrll (GluN2B), or BstB1 (GluN2C and GluN2D) and transcribed in vitro with T7 (GluN1a, GluN1/2A, GluN2B, GluN2C, & GluN2D) RNA polymerase using the mMessage mMachine transcription kits (Invitrogen by Thermo Fisher Scientific). […]
Electrophysiological responses were measured using a standard two‐microelectrode voltage‐clamp workstation [Warner Instruments (Hamden, Connecticut) model OC‐725C] designed to provide a fast clamp of large cells. […] Response magnitude was determined in xenopus oocytes expressing different NMDAR subunits (GluN1/2A, 1/2B, 1/2C, 1/2D, and 1/2A/2B) by the steady plateau response elicited by bath application of different agonist concentrations. […] Statistical significance was determined at the overall alpha level .05, using appropriate statistical methods as described in each figure captions.

GluN1/2B [2] = target: T1, GluN1/2B; test: Current–voltage (I–V) relationship, TEVC in xenopus oocytes
Method: GluN1A, GluN2B, GluN2C, GluN2D, and GluN1/2A/2B cRNAs were mixed in a ratio of 1:1–3. 50 nl of the final cRNA mixture was microinjected (40–70 ng total) into the oocyte cytoplasm. Oocytes were incubated in ND‐96 solution at 18^◦C prior to electrophysiological recordings (1–3 days).
After obtaining a steady‐state response to different agonist applications, agonist plus 100 μM CNS4 or agonist plus 40 μM MgCl2 plus 100 μM CNS4 was applied. […] Data points were aligned by least‐square fit by third‐order polynomial equation (Y = B0 + B1*X +B2*X ^2 + B3*X ^3), except for GluN1/2B that needed a fourth‐order polynomial equation.

[3] = target: GluN1/2A/2B triheteromeric (1/2AB) receptors (Rattus norvegicus, UniProt P35439+Q00959+Q01097); test: TEVC electrophysiology dose–response in xenopus oocytes; conditions: 100 µM CNS4, −60 mV, average ± SEM
GluN1/2A/2B triheteromeric (1/2AB) receptors, sequence (Q01097 27-1482, other chains not shown): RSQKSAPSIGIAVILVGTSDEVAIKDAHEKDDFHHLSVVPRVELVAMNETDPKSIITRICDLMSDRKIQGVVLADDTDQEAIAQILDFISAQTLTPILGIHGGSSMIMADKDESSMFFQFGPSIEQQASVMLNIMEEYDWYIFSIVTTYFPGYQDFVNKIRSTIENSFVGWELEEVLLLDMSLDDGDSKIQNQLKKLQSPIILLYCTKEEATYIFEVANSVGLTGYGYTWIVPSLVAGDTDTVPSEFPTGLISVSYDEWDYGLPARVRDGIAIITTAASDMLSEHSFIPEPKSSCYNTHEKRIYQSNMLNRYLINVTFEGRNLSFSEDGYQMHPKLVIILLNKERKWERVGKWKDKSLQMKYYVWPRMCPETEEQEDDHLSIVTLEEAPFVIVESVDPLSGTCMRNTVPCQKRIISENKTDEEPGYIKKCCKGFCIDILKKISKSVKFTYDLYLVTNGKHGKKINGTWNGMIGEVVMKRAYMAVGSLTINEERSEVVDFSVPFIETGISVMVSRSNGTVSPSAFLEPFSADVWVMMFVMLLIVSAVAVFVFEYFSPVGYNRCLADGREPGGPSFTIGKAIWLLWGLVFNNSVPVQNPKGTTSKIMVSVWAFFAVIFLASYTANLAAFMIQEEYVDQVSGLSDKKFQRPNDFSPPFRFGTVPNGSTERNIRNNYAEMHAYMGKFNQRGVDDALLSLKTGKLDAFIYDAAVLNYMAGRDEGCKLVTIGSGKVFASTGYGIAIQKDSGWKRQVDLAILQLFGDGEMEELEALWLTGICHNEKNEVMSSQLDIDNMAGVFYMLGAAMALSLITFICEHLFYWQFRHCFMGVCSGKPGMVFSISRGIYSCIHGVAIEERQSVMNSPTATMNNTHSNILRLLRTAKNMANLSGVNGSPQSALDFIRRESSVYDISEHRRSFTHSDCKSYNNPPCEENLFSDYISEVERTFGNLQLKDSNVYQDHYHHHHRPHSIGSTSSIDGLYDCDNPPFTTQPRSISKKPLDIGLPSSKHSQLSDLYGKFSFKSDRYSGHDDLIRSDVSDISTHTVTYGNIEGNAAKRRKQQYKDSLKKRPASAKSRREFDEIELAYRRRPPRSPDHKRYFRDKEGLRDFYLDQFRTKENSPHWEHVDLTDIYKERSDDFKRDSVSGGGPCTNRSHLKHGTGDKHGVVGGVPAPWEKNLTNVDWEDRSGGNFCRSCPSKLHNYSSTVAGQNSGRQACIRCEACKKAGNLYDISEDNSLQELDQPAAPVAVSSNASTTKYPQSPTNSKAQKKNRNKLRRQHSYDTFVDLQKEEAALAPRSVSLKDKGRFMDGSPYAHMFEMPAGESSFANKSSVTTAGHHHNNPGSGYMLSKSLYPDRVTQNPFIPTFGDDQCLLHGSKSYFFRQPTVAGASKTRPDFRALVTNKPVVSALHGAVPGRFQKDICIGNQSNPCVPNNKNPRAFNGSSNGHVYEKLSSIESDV
GluN1/2A/2B triheteromeric (1/2AB) receptors, sequence (Q00959 23-1464, other chains not shown): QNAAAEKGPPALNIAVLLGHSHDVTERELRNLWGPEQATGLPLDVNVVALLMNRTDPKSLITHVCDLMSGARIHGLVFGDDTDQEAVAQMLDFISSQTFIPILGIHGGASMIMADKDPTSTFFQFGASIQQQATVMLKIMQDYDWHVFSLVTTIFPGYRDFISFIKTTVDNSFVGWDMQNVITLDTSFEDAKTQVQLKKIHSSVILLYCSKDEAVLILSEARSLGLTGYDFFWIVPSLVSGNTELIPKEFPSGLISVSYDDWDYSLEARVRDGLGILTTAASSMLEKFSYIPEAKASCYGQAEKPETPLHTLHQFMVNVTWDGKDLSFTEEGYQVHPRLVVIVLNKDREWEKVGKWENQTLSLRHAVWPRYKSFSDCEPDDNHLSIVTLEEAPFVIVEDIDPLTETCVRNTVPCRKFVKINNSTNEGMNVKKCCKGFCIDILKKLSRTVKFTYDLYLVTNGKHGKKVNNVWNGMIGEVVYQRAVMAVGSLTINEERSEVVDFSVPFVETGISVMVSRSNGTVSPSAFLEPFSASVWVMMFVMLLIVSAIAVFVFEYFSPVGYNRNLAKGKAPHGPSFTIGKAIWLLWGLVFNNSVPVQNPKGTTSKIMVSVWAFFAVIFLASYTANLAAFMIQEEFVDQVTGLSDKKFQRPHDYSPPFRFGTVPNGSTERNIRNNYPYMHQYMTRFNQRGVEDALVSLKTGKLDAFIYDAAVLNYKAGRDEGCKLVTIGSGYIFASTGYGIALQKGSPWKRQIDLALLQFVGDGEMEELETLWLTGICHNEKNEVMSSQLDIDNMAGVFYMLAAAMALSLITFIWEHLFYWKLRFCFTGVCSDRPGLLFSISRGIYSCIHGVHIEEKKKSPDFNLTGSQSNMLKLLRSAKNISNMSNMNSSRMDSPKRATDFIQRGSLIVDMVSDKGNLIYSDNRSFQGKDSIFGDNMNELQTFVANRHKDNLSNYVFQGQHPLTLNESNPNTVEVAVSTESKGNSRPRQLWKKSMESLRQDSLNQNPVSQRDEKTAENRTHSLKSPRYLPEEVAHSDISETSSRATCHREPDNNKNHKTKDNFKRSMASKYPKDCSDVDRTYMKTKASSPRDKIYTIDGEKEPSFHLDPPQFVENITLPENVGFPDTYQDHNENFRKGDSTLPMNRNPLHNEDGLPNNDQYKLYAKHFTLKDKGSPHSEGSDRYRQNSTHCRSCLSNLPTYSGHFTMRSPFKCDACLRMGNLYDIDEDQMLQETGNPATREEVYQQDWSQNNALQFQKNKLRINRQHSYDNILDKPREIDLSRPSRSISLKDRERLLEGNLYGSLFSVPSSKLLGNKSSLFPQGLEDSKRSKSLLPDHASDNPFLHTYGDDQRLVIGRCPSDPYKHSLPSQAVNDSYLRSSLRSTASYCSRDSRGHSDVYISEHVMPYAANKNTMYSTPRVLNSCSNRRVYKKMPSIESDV
From the text: NMDAR constructs: cDNA encoding the NMDAR1a subunit (GluN1a) was obtained from Dr. Nakanishi. cDNA encoding the GluN2B (pci_sepGluN2B) was developed initially in the Malinow lab[36] and purchased from Addgene (cat# 23998). cDNA encoding the GluN2C and GluN2D were purchased from GenScript. Mutated GluN1, 2A and 2B cDNA constructs capable of assembling as GluN1/2A/2B triheteromeric (1/2AB) receptors[37] were obtained from Dr. Paoletti (Laboratoire de Neurobiologie, CNRS). […] Plasmids were linearized with NotI (GluN1a) or Avrll (GluN2B), or BstB1 (GluN2C and GluN2D) and transcribed in vitro with T7 (GluN1a, GluN1/2A, GluN2B, GluN2C, & GluN2D) RNA polymerase using the mMessage mMachine transcription kits (Invitrogen by Thermo Fisher Scientific).
Stage IV frog oocytes were obtained from Xenopus‐I. NMDAR subunit cRNAs were suspended in nuclease‐free sterile water. GluN1A, GluN2B, GluN2C, GluN2D, and GluN1/2A/2B cRNAs were mixed in a ratio of 1:1–3. 50 nl of the final cRNA mixture was microinjected (40–70 ng total) into the oocyte cytoplasm. Oocytes were incubated in ND‐96 solution at 18^◦C prior to electrophysiological recordings (1–3 days).
Electrophysiological responses were measured using a standard two‐microelectrode voltage‐clamp workstation [Warner Instruments (Hamden, Connecticut) model OC‐725C] designed to provide a fast clamp of large cells. The recording buffer contained 116 mM NaCl, 2 mM KCl, 0.3 mM BaCl2, and 5 mM HEPES, pH 7.4. Response magnitude was determined in xenopus oocytes expressing different NMDAR subunits (GluN1/2A, 1/2B, 1/2C, 1/2D, and 1/2A/2B) by the steady plateau response elicited by bath application of different agonist concentrations. […] Response amplitudes for functional NMDARs were generally between 0.1 and 2 μA. […] Dose–response relationships were fit to an appropriate curve‐fitting equation using GraphPad Prism‐7. Nonlinear regression was used to calculate EC50 and/or percentage maximal response. […] Statistical significance was determined at the overall alpha level .05, using appropriate statistical methods as described in each figure captions.

GluN1/2A, sequence (Q12879 23-1464, other chains not shown): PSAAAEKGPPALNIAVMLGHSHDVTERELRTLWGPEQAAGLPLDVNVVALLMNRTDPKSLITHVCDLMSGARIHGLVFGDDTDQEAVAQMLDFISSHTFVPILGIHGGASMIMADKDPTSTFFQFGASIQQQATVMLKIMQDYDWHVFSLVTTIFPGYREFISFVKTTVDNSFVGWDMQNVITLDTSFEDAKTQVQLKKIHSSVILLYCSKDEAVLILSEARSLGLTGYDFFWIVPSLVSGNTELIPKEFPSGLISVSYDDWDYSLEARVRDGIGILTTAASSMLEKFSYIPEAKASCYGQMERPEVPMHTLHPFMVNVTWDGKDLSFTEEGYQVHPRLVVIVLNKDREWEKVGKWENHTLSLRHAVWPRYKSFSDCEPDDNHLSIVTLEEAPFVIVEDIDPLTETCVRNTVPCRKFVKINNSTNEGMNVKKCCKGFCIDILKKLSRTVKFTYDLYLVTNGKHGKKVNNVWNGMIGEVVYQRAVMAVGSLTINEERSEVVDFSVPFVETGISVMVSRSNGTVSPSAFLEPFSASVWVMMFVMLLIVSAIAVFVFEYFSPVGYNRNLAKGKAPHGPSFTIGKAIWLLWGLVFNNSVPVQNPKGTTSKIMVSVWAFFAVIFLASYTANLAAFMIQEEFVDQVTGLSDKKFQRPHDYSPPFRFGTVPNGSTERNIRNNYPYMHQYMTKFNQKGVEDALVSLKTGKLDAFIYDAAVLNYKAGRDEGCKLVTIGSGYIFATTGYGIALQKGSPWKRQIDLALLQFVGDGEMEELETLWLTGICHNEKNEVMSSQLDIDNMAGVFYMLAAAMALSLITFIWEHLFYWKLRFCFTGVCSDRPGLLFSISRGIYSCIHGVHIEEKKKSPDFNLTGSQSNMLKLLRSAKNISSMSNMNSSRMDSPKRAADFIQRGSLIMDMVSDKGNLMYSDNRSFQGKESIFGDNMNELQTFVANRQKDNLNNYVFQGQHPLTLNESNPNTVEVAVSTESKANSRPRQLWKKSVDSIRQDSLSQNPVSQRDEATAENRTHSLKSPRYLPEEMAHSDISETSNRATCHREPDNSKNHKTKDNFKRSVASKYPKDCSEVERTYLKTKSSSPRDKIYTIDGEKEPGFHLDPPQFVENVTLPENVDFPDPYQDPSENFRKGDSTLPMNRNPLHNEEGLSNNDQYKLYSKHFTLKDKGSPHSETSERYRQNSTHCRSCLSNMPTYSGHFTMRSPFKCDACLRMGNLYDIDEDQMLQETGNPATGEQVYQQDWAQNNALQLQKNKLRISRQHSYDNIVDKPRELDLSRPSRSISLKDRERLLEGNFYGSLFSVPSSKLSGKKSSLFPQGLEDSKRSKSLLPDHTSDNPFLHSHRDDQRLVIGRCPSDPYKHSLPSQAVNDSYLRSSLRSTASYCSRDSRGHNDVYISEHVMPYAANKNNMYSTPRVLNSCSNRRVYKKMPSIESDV

O=C(NC(=S)N1CCCCC1c1cccnc1)c1ccc(F)cc1 (stereo not shown) [CNS4, 4‐fluoro‐N‐(2‐(pyridin‐3‐yl)piperidine‐1‐carbonothioyl)benzamide]
deactivation time constant tau (τ) (GluN1/2A; 100 µM CNS4 + Ag (100 µM glutamate + 100 µM glycine), n = 19, Ag alone 710.9 ± 98.27 ms, n = 9, p < .05): 1067 ± 104.3 ms | effect on maximum inducible current (GluN1/2A; 100 µM CNS4 co‐applied with agonist, 0.3 µM glutamate + 100 µM glycine): significantly potentiated | effect on peak current amplitude (GluN1/2A; 100 µM CNS4 co‐applied with agonist, 100 µM glutamate + 100 µM glycine): significantly inhibited | current response, agonist alone induced maximum current normalized to 100% (GluN1/2B [1]): 193.22% ± 21.2% | voltage dependence of effect on current amplitude (GluN1/2B [2]; 100 µM CNS4, 100 µM glutamate + 100 µM glycine, −90 to +30 mv): no voltage dependence effect | reversal potential (GluN1/2B [2]; agonist (100 µM glutamate + 100 µM glycine) + 40 µM MgCl2 + 100 µM CNS4, without CNS4 −11.66 ± 1.25, p > .05): −6.9 ± 0.74 mv | reversal potential (GluN1/2B [2]; agonist (100 µM glutamate + 100 µM glycine) + 100 µM CNS4, absence of Mg^2+, agonist alone −11.66 ± 1.55, p > .05): −10.89 ± 1.9 mv | current response, agonist alone induced maximum current normalized to 100% ([3]; 0.3 µM glutamate + 100 µM glycine): 264.37% ± 16.9% | current response, agonist alone induced maximum current normalized to 100% ([3]; 100 µM glutamate + 100 µM glycine): 122.65% ± 1.9% | current response, agonist alone induced maximum current normalized to 100% ([3]; 300 µM glutamate + 100 µM glycine): 144.47% ± 11.8%
